Experimental data taken from article PMC3076432 (PLoS ONE, 2011).
Like-named read-outs stand apart in the source and are kept apart here. Ends that are not written are not given here. Peptide text beside a SMILES is read from it.

Assays:
F. graminearum hyphae [1] = format: cell-based, Fusarium graminearum
Aspergillus flavus = format: cell-based
F. graminearum hyphae [2] = format: cell-based, Fusarium graminearum; remark: listed apart in the source
[3] = F. graminearum PH-1, SFM without calcium
[4] = PH-1, all concentrations tested
[5] = PH-1 conidia, microscopic observation after overnight (16 hours) incubation

NCC(=O)N1CCC[C@H]1C(=O)N[C@@H](CS)C(=O)N[C@@H](Cc1ccccc1)C(=O)N[C@@H](CO)C(=O)NCC(=O)N[C@@H](CS)C(=O)O [ALP1] (H-GPCFSGC-OH; N-terminus and C-terminus assumed)
antifungal activity at 48 µM (in words) (F. graminearum PH-1; PH-1): no antifungal activity | IC100: amount of protein required to inhibit F. graminearum conidial germination completely (F. graminearum PH-1; [3]): >48 µM | antifungal activity (in words) (F. graminearum PH-1; [4]): totally inactive

C[C@H](NC(=O)[C@H](CS)NC(=O)[C@@H]1CCCN1C(=O)CN)C(=O)N[C@@H](CO)C(=O)N[C@@H](CC(=O)O)C(=O)N[C@@H](Cc1c[nH]cn1)C(=O)N[C@@H](CC(N)=O)C(=O)N[C@@H](CS)C(=O)O [ALP4] (H-GPCASDHNC-OH; N-terminus and C-terminus assumed)
antifungal activity at 48 µM (in words) (F. graminearum PH-1; PH-1): no antifungal activity | IC100: amount of protein required to inhibit F. graminearum conidial germination completely (F. graminearum PH-1; [3]): >48 µM | antifungal activity (in words) (F. graminearum PH-1; [4]): totally inactive

N=C(N)NCCC[C@H](NC(=O)[C@H](CCCNC(=N)N)NC(=O)[C@H](CCCNC(=N)N)NC(=O)[C@H](Cc1ccccc1)NC(=O)CNC(=O)[C@@H](N)CCCNC(=N)N)C(=O)O [GMA4-L] (H-RGFRRR-OH)
fungal growth inhibition at 12 µM (F. graminearum PH-1; PH-1, 16 h, 12 µM): 100% | IC50 (F. graminearum PH-1; PH-1, 36 h): 4 µM | fungal growth inhibition at 6 µM (F. graminearum PH-1; PH-1, 36 h, 6 µM): 91±7%

C[C@@H](O)[C@H](NC(=O)[C@H](CS)NC(=O)[C@H](Cc1ccccc1)NC(=O)[C@H](CS)NC(=O)[C@H](CCCNC(=N)N)NC(=O)[C@H](CCCNC(=N)N)NC(=O)[C@H](CCCNC(=N)N)NC(=O)[C@H](Cc1ccccc1)NC(=O)CNC(=O)[C@H](CCCNC(=N)N)NC(=O)[C@H](CS)NC(=O)[C@H](CCCNC(=N)N)NC(=O)CN)C(=O)N[C@H](C(=O)N[C@@H](Cc1c[nH]cn1)C(=O)N[C@@H](CS)C(=O)O)[C@@H](C)O [GMA4-C] (H-GRCRGFRRRCFCTTHC-OH; N-terminus and C-terminus assumed)
IC100: amount of protein required to inhibit F. graminearum conidial germination completely (F. graminearum PH-1): 6 µM | concentration giving complete inhibition of conidial germination (IC100) (F. graminearum PH-1): 6 µM | lowest concentration at which antifungal activity / growth inhibition was evident (F. graminearum PH-1): 1.5 µM | fungal growth inhibition at 3 µM (F. graminearum PH-1; PH-1, 16 h, 3 µM): 70±9% | IC50 (F. graminearum PH-1; PH-1, 36 h): 3 µM

N=C(N)NCCC[C@H](NC(=O)CN)C(=O)N[C@@H](CS)C(=O)N[C@@H](CCCNC(=N)N)C(=O)N[C@@H](CC(=O)O)C(=O)N[C@@H](CC(=O)O)C(=O)N[C@@H](Cc1ccccc1)C(=O)N[C@@H](CCCNC(=N)N)C(=O)N[C@@H](CS)C(=O)O [GMA1] (H-GRCRDDFRC-OH; N-terminus and C-terminus assumed)
antifungal activity at 48 µM (in words) (F. graminearum PH-1; PH-1): no antifungal activity | antifungal activity at 96 µM (in words) (F. graminearum PH-1; PH-1): failed to show any antifungal activity | IC100: amount of protein required to inhibit F. graminearum conidial germination completely (F. graminearum PH-1; [3]): >192 µM | antifungal activity (in words) (F. graminearum PH-1; [4]): inactive

N=C(N)NCCC[C@H](NC(=O)CN)C(=O)N[C@@H](CS)C(=O)N[C@@H](CCCNC(=N)N)C(=O)NCC(=O)N[C@@H](Cc1ccccc1)C(=O)N[C@@H](CCCNC(=N)N)C(=O)N[C@@H](CCCNC(=N)N)C(=O)N[C@@H](CCCNC(=N)N)C(=O)N[C@@H](CS)C(=O)O [GMA4] (H-GRCRGFRRRC-OH; N-terminus and C-terminus assumed)
concentration giving complete inhibition of conidial germination (IC100) (F. graminearum PH-1; PH-1 conidia): 12 µM | lowest concentration at which antifungal activity / growth inhibition was evident (F. graminearum PH-1; [5]): 6 µM

C[C@H](NC(=O)[C@H](Cc1ccccc1)NC(=O)CNC(=O)[C@@H](N)CCCNC(=N)N)C(=O)N[C@@H](CCCNC(=N)N)C(=O)N[C@@H](CCCNC(=N)N)C(=O)O [GMA4-L2] (H-RGFARR-OH; N-terminus and C-terminus assumed)
SYTOX Green uptake (in words) (F. graminearum hyphae [1]): failed to induce any uptake | IC100: amount of protein required to inhibit F. graminearum conidial germination completely (F. graminearum PH-1): >96 µM | growth inhibition at 24 µM, 16 hours (in words) (F. graminearum PH-1): mild growth inhibition | growth inhibition at 96 µM (F. graminearum PH-1; PH-1, 16 h): 30–40% | IC50 (F. graminearum PH-1; PH-1, 36 h): > 96 µM

N=C(N)NCCC[C@H](NC(=O)[C@H](Cc1ccccc1)NC(=O)[C@H](CC(=O)O)NC(=O)[C@H](CC(=O)O)NC(=O)[C@@H](N)CCCNC(=N)N)C(=O)O [GMA1-L] (H-RDDFR-OH; N-terminus and C-terminus assumed)
SYTOX Green uptake (in words) (F. graminearum hyphae [1]): failed to induce any uptake | IC100: amount of protein required to inhibit F. graminearum conidial germination completely (F. graminearum PH-1): >96 µM | antifungal activity (in words) (F. graminearum PH-1): no antifungal activity | antifungal activity at 96 µM (in words) (F. graminearum PH-1): inactive | IC50 (F. graminearum PH-1; PH-1, 36 h): > 96 µM

C[C@@H](O)[C@H](NC(=O)[C@H](CS)NC(=O)[C@H](Cc1c[nH]c2ccccc12)NC(=O)[C@H](CS)NC(=O)[C@H](CCCNC(=N)N)NC(=O)[C@H](Cc1ccccc1)NC(=O)[C@H](CC(=O)O)NC(=O)[C@H](CC(=O)O)NC(=O)[C@H](CCCNC(=N)N)NC(=O)[C@H](CS)NC(=O)[C@H](CCCNC(=N)N)NC(=O)CN)C(=O)N[C@@H](CCCCN)C(=O)N[C@@H](CCCNC(=N)N)C(=O)N[C@@H](CS)C(=O)O [GMA1-C] (H-GRCRDDFRCWCTKRC-OH; N-terminus and C-terminus assumed)
SG uptake at 24 µM relative to that induced by GMA4-C (F. graminearum hyphae [1]; 24 µM): twice | IC100: amount of protein required to inhibit F. graminearum conidial germination completely (F. graminearum PH-1; [3]): 24 µM | hyperbranching of fungal hyphae (F. graminearum PH-1; PH-1, microscopy after 16 hours): did not cause hyperbranching | concentration giving complete inhibition of conidial germination (IC100) (F. graminearum PH-1; PH-1 conidia): 24 µM | lowest concentration at which antifungal activity / growth inhibition was evident (F. graminearum PH-1; [5]): 6 µM

C[C@H](NC(=O)CNC(=O)[C@@H](N)CCCNC(=N)N)C(=O)N[C@@H](CCCNC(=N)N)C(=O)N[C@@H](CCCNC(=N)N)C(=O)N[C@@H](CCCNC(=N)N)C(=O)O [GMA4-L1] (H-RGARRR-OH; N-terminus and C-terminus assumed)
SYTOX Green uptake at 24 µM (F. graminearum hyphae [1]; 24 µM): > 100 fluorescence units | IC100: amount of protein required to inhibit F. graminearum conidial germination completely (F. graminearum PH-1): >96 µM | growth inhibition at 24 µM, 16 hours (in words) (F. graminearum PH-1): mild growth inhibition | growth inhibition at 96 µM (F. graminearum PH-1; PH-1, 16 h): 30–40% | IC50 (F. graminearum PH-1; PH-1, 36 h): > 96 µM

RTCESQSHKFKGPCASDHNCASVCQTERFSGGRCRGFRRRCFCTTHC (also: bicyclic or more (positions not given here)) [MtDef4]
SYTOX Green uptake (in words) (F. graminearum hyphae [1]): increased in a concentration dependant manner | time to start of SG uptake after addition of defensin (F. graminearum hyphae [1]): ≤ 5 min | maximum SYTOX Green fluorescence at 6 µM, 5 hours (F. graminearum hyphae [1]; 6 µM, 5 hours): 702±10 units | growth inhibition of A. flavus at 48 µM (Aspergillus flavus): approximately 75% | hyphal morphology compared with untreated control hyphae (F. graminearum hyphae [2]): no difference | IC100: amount of protein required to inhibit F. graminearum conidial germination completely (F. graminearum PH-1): 1.5 to 2.5 µM | concentration giving complete inhibition of conidial germination (IC100) (F. graminearum PH-1): 1.5 µM | fungal growth inhibition at 1.5 µM (F. graminearum PH-1; 1.5 µM): 100% | IC50 (F. graminearum PH-1; read-out: IC50: amount of protein required for inhibiting 50% growth of F. graminearum): 0.75 to 1 µM
